What is called IC50 is the concentration at which inhibition is half-maximal. For orientation: viability means a per cent measure of how many cells are alive, often set against a control.

Experimental findings from article PMC11783063, “Design, synthesis, and apoptotic antiproliferative action of new benzimidazole/1,2,3-triazole hybrids as EGFR inhibitors” (Frontiers in Chemistry, 2025) are described below.

For series [1], the system named is A-549 (lung cancer cell line). Nature of the series: Antiproliferative assay, A-549. The format is cell-based, human. The following applies: Homo sapiens, A549; read-out: Antiproliferative activity IC50 ± SEM, A-549. The source says:
(§1) Refer to Supplementary Appendix A for more information.
(§2) DMSO (0.1%) was used as control.

A further series concerns Bax. Kind of series: Bax activation assay in MCF-7 cells. The note with it: for Bax Conc: compound at its IC50; for Bax Fold change: vs untreated control. The format is cell-based, human. As to the method: The current study supplied compounds 6i and 10e to breast (MCF-7) cancer cell lines at their respective IC50 values. This led to a notable elevation of pro-apoptotic Bax expression, with a fold increase of 34 for compound 6i and 36 for compound 10e.
Compounds 6i and 10e were assessed for their ability to activate caspase-3, caspase-8, and Bax, as well as to downregulate the anti-apoptotic protein Bcl2 in the MCF-7 breast cancer cell line ([Abdelbaset et al., 2019]). Supplementary Appendix A provides more details.
Bring all reagents, except the human Bax-α Standard, to room temperature for at least 30 minutes prior to opening. The human Bax-α Standard solution should not be left at room temperature for more than 10 minutes. All standards, controls and samples should be run in duplicate. Refer to the Assay Layout Sheet to determine the number of wells to be used and put any remaining wells with the desiccant back into the pouch and seal the ziploc. Store unused wells at 4 °C. Pipet 100 μL of Assay Buffer into the S0 (0 pg/mL standard) wells. Pipet 100 μL of Standards #1 through #6 into the appropriate wells. Pipet 100 μL of the Samples into the appropriate wells. Tap the plate gently to mix the contents. Seal the plate and incubate at room temperature on a plate shaker for 1 hour at ~500 rpm. Empty the contents of the wells and wash by adding 400 μL of wash solution to every well. Repeat the wash 4 more times for a total of 5 washes. After the final wash, empty or aspirate the wells and firmly tap the plate on a lint free paper towel to remove any remaining wash buffer. Pipet 100 μL of yellow Antibody into each well, except the Blank. Seal the plate and incubate at room temperature on a plate shaker for 1 hour at ~500 rpm. Empty the contents of the wells and wash by adding 400 μL of wash solution to every well. Repeat the wash 4 more times for a total of 5 washes. After the final wash, empty or aspirate the wells and firmly tap the plate on a lint free paper towel to remove any remaining wash buffer. Add 100 μL of blue Conjugate to each well, except the Blank. Seal the plate and incubate at room temperature on a plate shaker for 30 minutes at ~500 rpm. Empty the contents of the wells and wash by adding 400 μL of wash solution to every well. Repeat the wash 4 more times for a total of 5 washes. After the final wash, empty or aspirate the wells and firmly tap the plate on a lint free paper towel to remove any remaining wash buffer. Pipet 100 μL of Substrate Solution into each well. Incubate for 30 minutes at room temperature on a plate shaker at ~500 rpm. Pipet 100 μL Stop Solution to each well. Blank the plate reader against the Blank wells, read the optical density at 450 nm. Calculate the average net Optical Density (OD) bound for each standard and sample by subtracting the average Blank OD from the average OD for each standard and sample. Using linear graph paper, plot the Average Net OD for each standard versus Bax concentration in each standard. Approximate a straight line through the points. The concentration of Bax in the unknowns can be determined by interpolation.

The subject of series [2] is Panc-1 (pancreatic cancer cell line). Kind of series: Antiproliferative assay, Panc-1. The format is cell-based, human. The following applies: Homo sapiens, PANC-1; read-out: Antiproliferative activity IC50 ± SEM, Panc-1.
Description: as §1, §2

The next series deals with caspase-8. Kind of series: Caspase-8 activation assay in MCF-7 cells. The note with it: for Caspase-8 Conc: compound at its IC50 concentration; for Caspase-8 Fold change: vs untreated control. The class given is cell-based, human. The procedure: Cells experience apoptosis in reaction to specific signaling cues, resulting in significant modifications. […] They decompose vital cellular components, including nuclear proteins, such as DNA repair enzymes and structural proteins within the cytoskeleton, essential for optimal cellular function.
Supplementary Appendix A provides more details.
The absorbance of each microwell was read on a spectrophotometer at 450 nm. A standard curve is prepared from 7human Caspase-8 standard dilutions and human Caspase-8 concentration determined.

Series [3] has as its system HT-29 (colon cancer cell line). Kind of series: Antiproliferative assay, HT-29. The format is cell-based, human. The following applies: Homo sapiens, read-out: Antiproliferative activity IC50 ± SEM, HT-29.
Description: as §1, §2

For the next series, the target named is EGFR (Homo sapiens, UniProt P00533). Nature of the series: EGFR-TK inhibitory assay.
EGFR, sequence (P00533 669-1210): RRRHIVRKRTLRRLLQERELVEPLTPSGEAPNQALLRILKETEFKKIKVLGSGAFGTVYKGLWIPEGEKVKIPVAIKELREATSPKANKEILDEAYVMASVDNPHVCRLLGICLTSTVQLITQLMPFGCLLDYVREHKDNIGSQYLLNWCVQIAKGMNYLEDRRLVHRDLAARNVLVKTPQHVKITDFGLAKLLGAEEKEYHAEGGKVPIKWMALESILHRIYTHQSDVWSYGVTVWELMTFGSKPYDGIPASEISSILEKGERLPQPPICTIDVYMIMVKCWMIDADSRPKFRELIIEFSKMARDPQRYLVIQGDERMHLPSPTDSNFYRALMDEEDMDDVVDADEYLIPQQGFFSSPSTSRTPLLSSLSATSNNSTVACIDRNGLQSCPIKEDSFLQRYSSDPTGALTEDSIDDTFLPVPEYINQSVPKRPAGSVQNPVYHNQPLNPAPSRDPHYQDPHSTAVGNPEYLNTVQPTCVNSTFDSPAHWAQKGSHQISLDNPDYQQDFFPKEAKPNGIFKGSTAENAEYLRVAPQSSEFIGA
Series [4] has as its system four human cancer cell lines (HT-29, A-549, MCF-7, Panc-1). Kind of series: Antiproliferative assay, mean over four cancer cell lines (GI50). The following applies: Homo sapiens, read-out: Average IC50 (GI50).
Description: To calculate the total nuclear DNA, a fluorescent dye (propidium iodide, PI) is used which can attach to the DNA, thus offering a quick and precise technique. PI cannot pass through the cell membrane and its signal intensity can be considered as directly proportional to quantity of cellular DNA. Cells whose cell membranes are damaged or have changed permeability are counted as dead ones. […] The medium was removed; the compounds were added to the plates at 10 µM concentrations (in 0.1% DMSO) in triplicates, followed by incubation for 48 h. DMSO (0.1%) was used as control. After incubation, medium was removed followed by the addition of PI (25 µl, 50µg/mL in water/medium) to each well of the plates. At -80 °C, the plates were allowed to freeze for 24 h, followed by thawing at 25 °C. A fluorometer (Polar-Star BMG Tech) was used to record the readings at excitation and emission wavelengths of 530 and 620 nm for each well. The percentage cytotoxicity of compounds was calculated using the following formula:
Series [5] in a line: Cell viability assay (MTT) on MCF-10A normal cells. The note with it: human, MCF-10A normal mammary gland epithelial cells.
Description: (§3) The medium in which cells were propagated contained Dulbecco's modified Eagle's medium (DMEM)/ Ham's F-12 medium (1:1) supplemented with epidermal growth factor (20 ng/mL), hydrocortisone (500 ng/mL), insulin (10 μg/mL), 2 mM glutamine and 10% foetal calf serum. After every 2-3 days, the cells were passed using trypsin ethylenediamine tetra acetic acid (EDTA). The cells were seeded at a density of 10^4 cells mL^-1 in flat-bottomed culture plates containing 96 wells each. After 24 h, medium was removed from the plates and the compounds in (in 0.1% DMSO) were added (in 200 μL medium to yield a final concentration of 0.1% v/v) to the wells of plates. A single compound was designated with four wells followed by incubation of plates for 96h at 37°C. After incubation, medium was removed completely from the plates followed by addition of MTT (0.4 mg/mL in medium) to each well and subsequent incubation of plates for 3h. MTT (along with the medium) was removed and DMSO (150μL) was added to each well of the culture plates, followed by vortexing and subsequent measurement of absorbance (at 540 nm) using microplate reader.
Series [6] has as its system MCF-10A normal human mammary gland epithelial cell line. Nature of the series: Cell viability assay (MTT) on MCF-10A normal cells. The following applies: dose of 50 μM.
Description: as §3

The structures appear in SMILES notation.

Description for EGFR: To record autophosphorylation level, EGFR kinase assay was carried out on the basis of DELFIA/Time-Resolved Fluorometry. […] Each compound (10 µL) was incubated with recombinant enzyme (10 µL, 5 ng for EGFR, 1:80 dilution in 100 mM HEPES) for 10 min at 25 °C, subsequent to the addition of 5X buffer (10 µL, containing 2 mM MnCl2, 100 µM Na3VO4, 20 mM HEPES and 1 mM DTT) and ATP-MgCl2 (20 µL, containing 0.1 mM ATP and 50 mM MgCl2) and incubation for 1h. The negative and positive controls were included in each plate by the incubation of enzyme either with or without ATP-MgCl2. The liquid was removed after incubation and the plates were washed thrice using wash buffer. Europium-tagged antiphosphotyrosine antibody (75 µL, 400 ng) was added to each well followed by incubation of 1h and then washing of the plates using buffer. […] The autophosphorylation percentage inhibition by compounds was calculated using the following equation:

As to `NS(=O)(=O)c1ccc(-n2cc(CSc3nc4ccccc4[nH]3)nn2)cc1` [6i, 4-(4-(((1H-benzimidazol-2-yl)thio)methyl)-1H-1,2,3-triazol-1-yl)benzene-sulfonamide], the IC50 in [1] amounted to 30 ± 2 nM; in [2] it was 28 ± 2 nM; in [3], 30 ± 2 nM; against EGFR, 78 ± 5 nM; in series [4] it was 29 nM. Moreover, the “Bax Conc” value in the series with Bax worked out at 310 ± 3 pg/mL. The “Bax Fold change” value in the series on Bax was found to be 34. Besides, in the series with caspase-8, the “Caspase-8 Conc” value was 1.60 ± 0.20 ng/mL. Besides, the “Caspase-8 Fold change” value in the series on caspase-8 is 18. In addition, the viability at 4 days, 50 µM in [5] stood at 90%. Also, in series [6], the “Impact on non-tumor cells MCF-10A” value is reported as “no impact”.

Consider `O=[N+]([O-])c1cccc(-n2cc(Cn3c(SCc4ccccc4)nc4ccccc43)nn2)c1` [10e], for which the IC50 is 26 ± 2 nM in series [1]; 26 ± 2 nM in series [2]; 25 ± 2 nM in [3]; 73 ± 4 nM against EGFR; 25 nM in [4]. Moreover, the “Bax Conc” value in the series on Bax was 325 ± 3 pg/mL. In addition, the “Bax Fold change” value with Bax came to 36. Moreover, the “Caspase-8 Conc” value with caspase-8 worked out at 1.75 ± 0.15 ng/mL. In the series on caspase-8, the “Caspase-8 Fold change” value is given as 19. In series [5], this compound yielded a viability at 4 days, 50 µM of 90%. In addition, the “Impact on non-tumor cells MCF-10A” value in [6] is recorded as “no impact”.
